{"source": "patent US20250017907A1", "about": "“METHOD FOR PREVENTING AND/OR TREATING LIVER FIBROSIS BY USING 6-METHOXYBENZOXAZOLINONE AND COIX LACHRYMA-JOBI L. EXTRACT COMPRISING 6-METHOXYBENZOXAZOLINONE” (Taichung District Agricultural Research and Extension …, priority 2023, published 2025)", "type_in_all_cases": "in vivo", "key": {"[1]": {"tested_on": "TAA-induced liver fibrotic C57BL/6J mice", "assay": "Liver weight, body weight and liver index", "settings": "CX groups (20 and 50 mg/kg oral, 6 weeks); vs TAA group", "procedure": "(§1) For tests of adlay extracts, mice were randomly divided into the following seven groups (n=6, per group): (1) No treatment group (NT, normal diet), (2) Thioacetamide group (TAA, 200 mg/kg, normal diet), (3) 10% adlay seed powder (ASP) group, (4) 1% adlay leaf powder (ALP) group, (5) 1% adlay seed polysaccharide (ASPS) group, (6) 0.025% adlay seed ethanolic extract (ASE) group and (7) 0.1% ASE group. NT group received pure saline, and other groups intraperitoneally injected with TAA dissolved into saline thrice a week.\n(§2) For tests of CX, mice were randomly divided into the following four groups (n=8, per group): (1) NT group, (2) TAA group (200 mg/kg), (3) CX group (CX20, 20 mg/kg), and (4) CX group (CX50, 50 mg/kg). NT group received pure saline, and other groups intraperitoneally injected with TAA dissolved into saline thrice a week. Moreover, NT group and TAA group also received 5% propylene glycol, while CX groups received CX dissolved into 5% propylene glycol (prepared in 0.9% saline) by oral gavage once per day.\nThe procedure of the schematic diagram of animal experiment design in adlay groups is described as follows. To examine the effects of adlay on liver fibrosis, this example established a TAA-induced liver fibrotic C57BL/6J mouse model. FIG. 1 is a schematic diagram of animal experiment design in adlay groups. In this experiment, C57BL/6J mice were intraperitoneally injected with thioacetamide (TAA) to induce liver fibrosis. At six weeks of age, the mice were randomly divided into seven groups fed with different diets (NT, TAA, 10% ASP, 1% ALP, 1% ASPS, 0.025% ASE and 0.1% ASE, n=6). After co-feeding for 6 weeks during which intraperitoneal injection of TAA was administered thrice a week, the mice were finally sacrificed at 12 weeks of age. NT represents no treatment, ASP represents adlay seed powder, ALP represents adlay leaf powder, ASPS represents adlay seed polysaccharide, and ASE represents adlay seed ethanolic extract. […]"}, "[2]": {"tested_on": "TAA-induced liver fibrotic C57BL/6J mice", "assay": "Real-time PCR of liver fibrotic and inflammatory genes", "settings": "CX groups (20 and 50 mg/kg oral, 6 weeks); vs TAA group", "procedure": "as §1, §2\nThe procedure of real-time PCR analysis is as follows. Total RNA was extracted with the Trizol reagent (Ambion, USA) and then reverse-transcribed into cDNA with RevertAid First Strand cDNA Synthesis kit (Thermo Scientific, USA). The PCR amplification was accomplished with SYBR Green PCR Master Mix (Applied Biosystems, USA), and the mRNA expression of the gene was normalized to GAPDH. All primers were obtained from Genomics (Genomics, Taiwan). Rat primer sequences are used for real-time PCR of HSC-T6 cells, and mouse primer sequences are used for real-time PCR of C57BL/6J mice."}, "[3]": {"tested_on": "TAA-induced liver fibrotic C57BL/6J mice", "assay": "Liver histopathological observation (H&E, Sirius Red, IHC staining)", "settings": "6 weeks; for collagen deposition (Sirius Red) / inflammatory infiltration (H&E) / liver structure deformation (H&E) / α-SMA expression (IHC): vs TAA group", "procedure": "According to the present invention, animals used in the following examples are described as follows. Male C57BL/6J mice (5-week-old) were from the National Laboratory Animal Center (Taipei, Taiwan), and housed in a temperature-controlled room on a 12 h light-dark cycle with free access to food and drinking water at the Animal Center of the National Yang Ming Chiao Tung University (Taipei, Taiwan). All experiments were approved by Institutional Animal Care and Use Committee of National Yang Ming Chiao Tung University. […]\nFor tests of CX, mice were randomly divided into the following four groups (n=8, per group): (1) NT group, (2) TAA group (200 mg/kg), (3) CX group (CX20, 20 mg/kg), and (4) CX group (CX50, 50 mg/kg). NT group received pure saline, and other groups intraperitoneally injected with TAA dissolved into saline thrice a week. Moreover, NT group and TAA group also received 5% propylene glycol, while CX groups received CX dissolved into 5% propylene glycol (prepared in 0.9% saline) by oral gavage once per day. […]\nThe procedure of liver histopathological observation is as follows. After fixation in 10% neutral buffered formalin solution, the liver tissues were embedded with paraffin and then sliced into 4 μm-thickness sections. Pathological sections were examined to assess the change of tissue architecture with the H&E staining kit (CIS-Biotechnology, Taiwan), the condition of collagen deposition with the Sirius Red staining kit (CIS-Biotechnology, Taiwan), and the expression of specific proteins in tissue with the immunohistochemistry kit (Agilent, USA), as well as phospho-SMAD2 (1:100; GeneTex, USA), phospho-SMAD3 (1:100; GeneTex, USA), and α-SMA (1:100; GeneTex, USA) antibodies.\nTo examine the effects of CX on liver fibrosis, this example established a TAA-induced liver fibrotic C57BL/6J mouse model. FIG. 6 is a schematic diagram of animal experiment design in 6-methoxybenzoxazolinone (6-MBOA) (CX) groups. For animal experiments, 6-week-old C57BL/6J mice were randomly divided into four groups including NT, TAA, CX20 (TAA+20 mg/kg CX), CX50 (TAA+50 mg/kg CX). (n=8 per group). Mice were given intraperitoneal injection of TAA thrice a week to induce liver fibrosis; they also received CX or the vehicle by oral gavage once per day. At the end of animal tests, mice were sacrificed at 12 weeks of age. Six-week-old mice were randomly divided into four groups, namely NT, TAA, CX20 and CX50 (FIG. 6). Among these groups, only the NT group was oral gavaged and administered with vehicle, the TAA group was oral gavaged with vehicle and administered with TAA, and the CX groups were oral gavaged with CX and administered with TAA. Oral gavage was performed once a day while intraperitoneal injection was given thrice a week; both oral gavage and intraperitoneal injection were continuously administered for six weeks. After that, the mice were sacrificed, and their liver tissues and serum were collected for subsequent analyses."}, "[4]": {"settings": "CX20: 20 mg/kg oral gavage once per day"}, "[5]": {"settings": "CX50: 50 mg/kg oral gavage once per day"}}, "data": [{"smiles": "COc1ccc2[nH]c(=O)oc2c1", "note": "[CX, 6-methoxybenzoxazolinone]", "values": [{"measurement": "change in body weight caused by TAA", "setting": "[1]", "result": "did not significantly improve"}, {"measurement": "liver index (ratio of liver weight to body weight)", "setting": "[1]", "result": "decreased significantly"}, {"measurement": "liver weight", "setting": "[1]", "result": "reduced"}, {"measurement": "TAA-induced downregulation of liver IL-10 mRNA level", "setting": "[2]", "result": "significantly decreased"}, {"measurement": "TAA-induced upregulation of liver COL1A1 mRNA", "setting": "[2]", "result": "significantly decreased"}, {"measurement": "TAA-induced upregulation of liver IL-6 mRNA level", "setting": "[2]", "result": "significantly decreased"}, {"measurement": "TAA-induced upregulation of liver TNF-α mRNA level", "setting": "[2]", "result": "significantly decreased"}, {"measurement": "TAA-induced upregulation of liver α-SMA mRNA", "setting": "[2]", "result": "significantly decreased"}, {"measurement": "collagen deposition (Sirius Red)", "setting": "[3]; [4]", "result": "significantly reduced"}, {"measurement": "inflammatory infiltration (H&E)", "setting": "[3]; [4]", "result": "significantly reduced"}, {"measurement": "liver structure deformation (H&E)", "setting": "[3]; [4]", "result": "significantly reduced"}, {"measurement": "α-SMA expression (IHC)", "setting": "[3]; [4]", "result": "significantly reduced"}, {"measurement": "p-SMAD2 expression (IHC)", "setting": "[3]; [5]", "result": "negatively regulated"}, {"measurement": "p-SMAD3 expression (IHC)", "setting": "[3]; [5]", "result": "negatively regulated"}, {"measurement": "collagen deposition (Sirius Red)", "setting": "[3]; [5]", "result": "significantly reduced"}, {"measurement": "inflammatory infiltration (H&E)", "setting": "[3]; [5]", "result": "significantly reduced"}, {"measurement": "liver structure deformation (H&E)", "setting": "[3]; [5]", "result": "significantly reduced"}, {"measurement": "α-SMA expression (IHC)", "setting": "[3]; [5]", "result": "significantly reduced"}]}]}
